The nature of data set [1]: Hydrolysis in CEM/0 cell extracts. It counts as in vitro ADME. To be noted: human. As for the experimental part: Next, TetraPPPPro-nucleotides 4–9 were incubated in human CD4^+ T-lymphocyte CEM/0 cell extracts to study their stability and identify the hydrolysis products.
CEM cells were grown in RPMI-1640-based cell culture medium to a final density of ∼3 × 10^6 cells/mL. Cells were centrifuged for 10 min at 1250 rpm at 4 °C and washed twice with cold PBS, and the pellet was resuspended at 10^8 cells/mL and sonicated (Hielscher Ultrasound Techn., 100% amplitude, 3·times for 10 s) to destroy cell integrity. Next, the resulting cell suspension was centrifuged at 10,000 rpm to remove cell debris. Finally, the supernatant was divided into aliquots and frozen at −80 °C.
6.0 mM hydrolysis solutions of compounds 4–9 were prepared from 21 μL of 50 mM DMSO stock solutions and 154 μL of DMSO. Two different samples, including 10 μL of water and 10 μL of 6.0 mM hydrolysis solution, were prepared in 2 mL Eppendorf vials. Next, 50 μL of human CEM cell extracts or 50 μL of human citrate plasma were added to the mixture, the reaction was started, and the mixture was incubated at 37 °C for different time periods. The reactions were stopped by the addition of 150 μL of MeOH. The resulting suspension was kept on ice for 5 min, followed by defrosting and centrifugation at 14,000 rpm (Heraeus, Biofuge Pico) for 22 min. The supernatants (80 or 60 μL) were directly injected into HPLC. The calculation of t1/2 was performed analogously to that for the chemical hydrolysis studies.

For the next data set, the target named is T1, human DNA polymerase β (Homo sapiens, UniProt P06746).
T1 construct: purchased Chimerx
The data set is described as follows: Primer extension assay using human DNA polymerase β. The settings on record: 60 min, 2 U, 37 °C. The data set is classed as biochemical. The source says: Encouraged by the previously obtained results that γ-phosphate-modified-d4TDPs 3, γ-monoalkylated d4TTP derivatives as well as d4TDP were accepted as substrates by HIV-RT,[49],[50],[55],[59]−[61] δ-dialkylated d4T tetraphosphate analogues 4,5, δ-monoalkylated d4T tetraphosphate analogues 20 and 24 and d4T4P were investigated in primer extension assays in the presence of HIV-RT or the three different human DNA polymerases α, β and γ. D4TTP (for the compounds 4–9) and the natural thymidine triphosphate (TTP) were used as reference compounds.
Figure 6 Primer extension assay using HIV-RT (A), human polymerases α (B), β (C), and γ (D). (Figure 6A). Primer extension assay using HIV-RT (30 min, 6U). Lane 1: (+) dATP, dCTP, dGTP, and TTP with HIV-RT. Lane 2: (−) dATP, dCTP, dGTP, and TTP without HIV-RT. Lane 3: TTP. […] Lane 5: δ-(C4; C18)-d4T4P 4d. […] Lane 7: δ-(C18)-d4T4P 20. Lane 8: δ-C-(C18)-d4T4P 24. Lane 9: d4T4P. Lane 10: d4TTP. Lane 11: d4TDP. HIV-RT assay reaction conditions: 50 mM Tris–HCl (pH 8.6), 10 mM MgCl2, 40 mM KCl, 250 μM dNTPs, HIV-RT (6 U), 0.20 μM DNA hybrid, primer-template-hybrid 0.32 mM in a reaction volume of 10 μL, incubated at 37 °C for 0.5 h, 80 °C for 7 min. Primer extension assays: 50 mA, 45 w for 4 h. (Figure 6B). For human DNA polymerase α assay (60 min, 2 U): Lane 1: (+) dATP, dCTP, dGTP, and TTP with human polymerase α. Lane 2: (−) dATP, dCTP, dGTP, and TTP without human polymerase α. Lane 3: TTP. […] Lane 5: δ-(C4; C18)-d4T4P 4d. […] Lane 7: δ-(C18)-d4T4P 20. Lane 8: δ-C-(C18)-d4T4P 24. Lane 9: d4T4P. Lane 10: d4TTP. Human DNA polymerase α assay conditions: 60 mM Tris–HCl (pH 8), 5 mM Mg(OAc)2, 100 mM KCl, 1.0 mM dithiothreitol, 0.1 mM spermine, 0.01% (w/v) bovine serum albumin, 250 μM dNTPs, 2 U human polymerase α, 0.20 μM DNA hybrid, and primer-template-hybrid 0.32 mM in a reaction volume of 10 μL, incubated at 37 °C for 1 h, 80 °C for 7 min. Primer extension assays: 50 mA, 45 w for 3 h. (Figure 6C). For human DNA polymerase β assay (60 min, 2 U): Lane 1: (+) dATP, dCTP, dGTP, and TTP with human polymerase β. Lane 2: (−) dATP, dCTP, dGTP, and TTP without human polymerase β. Lane 3: TTP. […] Lane 5: δ-(C4; C18)-d4T4P 4d. […] Lane 7: δ-(C18)-d4T4P 20. Lane 8: δ-C-(C18)-d4T4P 24. Lane 9: d4T4P. Lane 10: d4TTP. Human DNA polymerase β assay conditions: 50 mM Tris–HCl (pH 8.7), 10 mM Mg(OAc)2, 100 mM KCl, 1.0 mM dithiothreitol, 0.1 mM spermine, 0.01% (w/v) bovine serum albumin, 15% glycerol, 250 μM dNTPs, 2 U human DNA polymerase β, 0.20 μM DNA hybrid, and primer-template-hybrid 0.32 mM in a reaction volume of 10 μL, incubated at 37 °C for 1 h, 80 °C for 7 min. Primer extension assays: 50 mA, 45 w for 3 h. (Figure 6D), For the human DNA polymerase γ assay (120 min, 2 U): Lane 1: (+) dATP, dCTP, dGTP, and TTP with human polymerase γ. Lane 2: (−) dATP, dCTP, dGTP, and TTP without human polymerase γ. Lane 3: TTP. […] Lane 5: δ-(C4; C18)-d4T4P 4d. […] Lane 7: δ-(C18)-d4T4P 20. Lane 8: δ-C-(C18)-d4T4P 24. Lane 9: d4T4P. Lane 10: d4TTP. Human polymerase γ assay conditions: 60 mM Tris–HCl (pH 8), 5 mM Mg(OAc)2, 1.0 mM dithiothreitol, 0.1 mM spermine, 0.01% (w/v) bovine serum albumin, 250 μM dNTPs, 2 U human polymerase γ, 0.5 μM MnCl2, 0.20 μM DNA hybrid, primer-template-hybrid 0.32 mM in a reaction volume of 10 μL, incubated at 37 °C for 2 h, 80 °C for 7 min. Primer extension assays: 50 mA, 45 w for 3 h.
HIV-RT and human polymerases α, β, and γ were bought from Roboklon and Chimerx. The fluorescent-labeled primer and template were obtained from Metabion. […]

Setting [2] is: 37 °C, read-out: CEM/0 cell extracts t1/2 (converted).

Molecules are shown by their SMILES. “Also recorded” adds a separate entry of the source. Like-named read-outs stand apart in the source and are kept apart here.

Consider `Cc1cn([C@H]2C=C[C@@H](COP(=O)(O)OP(=O)(O)OP(=O)(O)OP(=O)(O)O)O2)c(=O)[nH]c1=O` [d4T4P, 2′,3′-didehydro-2′,3′-dideoxythymidine-5′-tetraphosphate], for which the half-life at 0.86 mM was 0.37 h in data set [1] (setting [2]) and 0.367 h in data set [1] (dephosphorylation, read-out: t1/2 in CEM/0 cell extracts). The “substrate for human DNA polymerase β (primer extension)” value (from here on “substrate for human DNA polymerase β”) at human DNA polymerase β was “efficiently incorporated; also recorded: substrate”.
In the case of `CCCCCCCCCCCCCCCCCCOP(=O)(O)OP(=O)(O)OP(=O)(O)OP(=O)(O)OC[C@@H]1C=C[C@H](n2cc(C)c(=O)[nH]c2=O)O1` [compound 20, δ-(Alkyl-C18)-d4T4P], in data set [1] (setting [2]), the half-life at 0.86 mM was greater than 8 h.
`CCCCCCCCCCCCCCCCCCP(=O)(OCCCC)OP(=O)(O)OP(=O)(O)OP(=O)(O)OC[C@@H]1C=C[C@H](n2cc(C)c(=O)[nH]c2=O)O1` (stereo partly drawn) [5a, δ-(Alkyl-C4)-δ-C-(alkyl-C18)-d4T4P]: the half-life at 0.86 mM in data set [1] (setting [2]) is greater than 20 h. Further, at human DNA polymerase β, the “substrate for human DNA polymerase β” value is reported as “No incorporation of d4TMP”.
Take `CCCCCCCCCCCCCCCCCCP(=O)(O)OP(=O)(O)OP(=O)(O)OP(=O)(O)OC[C@@H]1C=C[C@H](n2cc(C)c(=O)[nH]c2=O)O1` [compound 24, δ-C-(Alkyl-C18)-d4T4P]: the half-life at 0.86 mM in data set [1] (setting [2]) was greater than 30 h.
Turning to `CCCCCCCCCCCCCCCCCCOP(=O)(OCCCC)OP(=O)(O)OP(=O)(O)OP(=O)(O)OC[C@@H]1C=C[C@H](n2cc(C)c(=O)[nH]c2=O)O1` (stereo partly drawn) [4d, δ-(Alkyl-C4; alkyl-C18)-d4T4P], in data set [1] (setting [2]), the half-life at 0.86 mM is greater than 20 h. Besides, at human DNA polymerase β, the “substrate for human DNA polymerase β” value was “not accepted”.

For the origin of these results see publication PMC10895676, “Antiviral Activity of Lipophilic Nucleoside Tetraphosphate Compounds” (Journal of Medicinal Chemistry, 2024).
